Read-outs that look alike come from different tables or passages of the source.
Columns and labels:
phospholipase secretion [1] = test: Phospholipase assay (egg yolk agar, Pz value); format: cell-based, C. albicans ATCC 90028
Description: (§1) Phospholipase activity was performed using the method of Price et al. (1982) with minor modifications. The cells were incubated at 37°C for 18 h and then centrifuged at 3000 rpm for 5 min. The pellet obtained was washed with PBS twice to remove the residual culture medium. […] Volumes of 1 μL were placed at equidistant points on phospholipase agar media plates (1% peptone; 3% glucose; 5.73% NaCl; 0.055% CaCl2 with 10% (v/v) egg yolk emulsion) and incubated at 37°C for 4 days. The secretion of phospholipases was determined by the formation of opaque zones due to precipitation around the yeast colonies. The assay was conducted in duplicate. Pz values were calculated as follows: Pzvalue=diameterofcolony/diameterofcolony+diameterofzoneofprecipitaion

proteinase secretion = test: Proteinase assay (BSA agar, Pz value); format: cell-based, C. albicans D27 (FLC-susceptible); details: at MIC, 1 h exposure
Description: Following incubation, 1.5 mL of the yeast culture was taken into micro centrifuge tubes and centrifuged at 3000 rpm, for 5 min. The pellet obtained was washed by phosphate buffer saline (PBS) twice to remove the residual medium. […] Volumes of 1μL were placed at equidistant points on proteinase agar medium (0.1% yeast nitrogen base w/o amino acids; 0.145% ammonium sulfate; 2% glucose with 0.2% (w/v) BSA fraction V mixed into agar at ∼40°C) and incubated at 37°C for 3 days. The experiment was performed in duplicate. Secreted proteinase enzyme will degrade BSA and form zone of clearance around the yeast colonies. An index (Pz value) was used to represent the extent of proteinase activity by different strains of C. albicans. A Pz value of 1.0 depicts no enzyme activity. It was calculated as follows: Pzvalue=diameterofcolony/diameterofcolony+diameterofzoneofdegradation

Hemolytic assay = format: cell-based; details: human, human red blood cells (erythrocyte suspension), 37°C, read-out: Hemolysis of hRBCs
Description: Human blood from a healthy individual was collected in tubes containing EDTA as anti-coagulant. The erythrocytes were harvested by centrifugation for 10 min at 2000 rpm and 20°C, washed three times in PBS. To the pellet, PBS was added to yield a 10% (v/v) erythrocytes/PBS suspension. The 10% suspension was then diluted 1:10 in PBS. From each suspension, 100 μL was added in triplicate to 100 μL of a different dilution series of test compounds in the same buffer in micro centrifuge tubes. […] The tubes were incubated for 1 h at 37°C and then centrifuged for 10 min at 2000 rpm and 20°C. From the supernatant, 150 μL was transferred to a flat-bottomed microtiter plate (Tarson), and the absorbance was measured spectrophotometrically at 450 nm. The hemolysis percentage was calculated by following equation: %Hemolysis=[(A450oftestcompoundtreatedsample−A450ofbuffertreatedsample)÷(A450of1%TritonX−100treatedsample−A450ofbuffertreatedsample)]×100

phospholipase secretion [2] = test: Phospholipase assay (egg yolk agar, Pz value); format: cell-based, C. albicans D15.9 (FLC-resistant)
Description: as §1

[3] = test system: C. albicans ATCC 90028, C. albicans D27 (FLC-susceptible) and C. albicans D15.9 (FLC-resistant); test: Time kill curve study, three strains; format: cell-based; details: for Fungicidal or fungistatic nature: time kill curves, at 2MIC
Description: Time-kill curves were used for testing the fungicidal or fungistatic nature of the lead inhibitors 3a and 3b. The experimental procedure was performed according to the method reported by Wang et al.. C. albicans ATCC 90028, C. albicans D27 (FLC-susceptible) and C. albicans D15.9 (FLC-resistant) strains were used as test organisms. Fluconazole was used as a positive control. Freshly prepared sterile YEPD medium was inoculated by fresh culture (approx. 2×10^3 cells) of test organisms in different conical flasks. The cells were exposed to the test compounds at 2MIC, MIC and MIC/2 values, separately. All the conical flasks having different sets of test compounds and concentrations were incubated at 37°C and 160 rpm. At predetermined time points (0, 4, 12, 24, and 48 h after incubation with agitation at 37°C), a 100-μL aliquot was removed from every solution and appropriately diluted in sterile water. A 100-μl aliquot from each dilution was spread over the YEPD agar plate. Colony counts were determined after incubation at 37°C for 24 h. All the time-kill curve experiments were conducted in duplicate and mean colony count data (log10 CFU/mL) were plotted as a function of time for each strain.

[4] = test system: C. albicans ATCC 90028, C. albicans D27 and C. albicans D15.9; test: Growth assay (growth curve), all three strains; format: cell-based
Description: The C. albicans cells were freshly revived by subculture on the SD agar plate. A loopful of inoculum was introduced into the SD broth and cells were grown for 16 h at 37°C before use. Approximately 2×10^3 cells/mL were then inoculated into the freshly prepared 50 mL sterile SD medium. […] At predetermined time periods (0, 2, 4, 6, 8, 10, 12, 14, 16, 18, 20 22, and 24 after incubation with agitation at 37°C), 1 mL aliquot of each sample was removed from the conical flask and growth was measured tubidometrically at 600 nm using Thermo Multiskan spectrophotometer. Optical density was recorded for each concentration against time (h).

[5] = test system: C. albicans ATCC 90028 (Standard); test: Disk diffusion assay; format: cell-based; details: 48 h
Description: (§2) Disk diffusion assay was performed using C. albicans ATCC 90028 (standard), the two clinical isolates, C. albicans D27 (FLC-susceptible), and C. albicans D15.9 (FLC-resistant) for the lead inhibitors 3a and 3b. The C. albicans cells were inoculated into liquid SD medium and grown over night at 37°C. The cells were then centrifuged at 3000 rpm for 5 min, washed three times with PBS and then suspended in PBS again. Approximately, 10^5 cells/mL were inoculated into molten SD agar medium at 42°C and poured into 100-mm-diameter petriplates. Sterilized 4 mm disks of Whatman paper were placed on solid agar and 1, 2, and 4 μL of 3a and 2, 4, and 8 μL of 3b from the stock solution of 10 mg/mL were spotted on the disk. […] The diameter of zone of inhibition (ZOI) was recorded in millimetres after 48 h and was compared with that of control. This experiment was repeated thrice and values were shown in terms of mean ±standard error of mean.

[6] = test system: C. albicans D27 (FLC-susceptible); test: Disk diffusion assay; format: cell-based; details: 48 h
Description: as §2

[7] = test system: C. albicans D15.9 (FLC-resistant); test: Disk diffusion assay; format: cell-based; details: 48 h
Description: as §2

[8] = Candida albicans, ATCC90028, 20 μg per disk
[9] = Candida albicans, ATCC90028, 40 μg per disk
[10] = Candida albicans, 40 μg per disk

| SMILES | Decrease of phospholipase secretion (phospholipase secretion [1]; at MIC, 1 h exposure) | Decrease of phospholipase secretion (phospholipase secretion [1]; at MIC/4, 1 h exposure) | Decrease of proteinase secretion (proteinase secretion) | hemolysis at 1 h, 500 μg/mL (Hemolytic assay) | Decrease of phospholipase secretion (phospholipase secretion [2]; at MIC, 1 h exposure) | Decrease of phospholipase secretion (phospholipase secretion [2]; at MIC/4, 1 h exposure) | Fungicidal or fungistatic nature [3] | zone of inhibition at 20 µg/disc [5, 8] | zone of inhibition at 40 µg/disc [5, 9] | zone of inhibition at 40 µg/disc [6, 10] | zone of inhibition at 20 µg/disc ([7]; Candida albicans) | zone of inhibition at 40 µg/disc ([7]; Candida albicans) | other results |
| --- | --- | --- | --- | --- | --- | --- | --- | --- | --- | --- | --- | --- | --- |
| Clc1ccc(OCc2cn(Cc3ccccc3)nn2)c2ncccc12 [Compound 3b, 8-((1-Benzyl-1H-1,2,3-triazol-4-yl)methoxy)-5-chloroquinoline] | 68% | 32% | 22% | 26.8% | 30% | 25% | fungistatic | 18 ± 0.72 mm | 25 ± 0.9 mm | 18 ± 0.87 mm | 15 ± 0.21 mm | 18 ± 0.09 mm | Phospholipase activity after treatment (phospholipase secretion [1]; Fig 4 legend): No phospholipase activity; Change in CFU/mL with time interval ([3]; dose dependent): only slight increase in CFU/mL; Growth inhibition ([4]; at 2MIC and MIC): significant growth inhibition; Zone of Inhibition ([5]; 80 μg per disk): 29± 0.93 mm; zone of inhibition at 80 µg/disc ([5]; Candida albicans, ATCC90028, 80 μg per disk): 29 mm; Zone of Inhibition ([6]; 80 μg per disk): 26± 1.17 mm; zone of inhibition at 20 µg/disc ([6]; Candida albicans, 20 μg per disk, read-out: Zone of Inhibition): 16 ± 0.54 mm; zone of inhibition at 80 µg/disc ([6]; Candida albicans, 80 μg per disk): 26 mm; Zone of Inhibition ([7]; 80 μg per disk): 22± 0.79 mm; zone of inhibition at 80 µg/disc ([7]; Candida albicans): 22 mm |
| c1ccc(Cn2cc(COc3cccc4cccnc34)nn2)cc1 [Compound 3a] | 43% | 40% | 30% | 4.76% | 34% | 25% | fungicidal | 35 mm | 39 mm | 26 mm | 26 mm | 32 mm | Change in CFU/mL ([3]; 2MIC, after 48 h, all three test strains): significant decrease in CFU/mL; Lag phase (no growth) ([4]; 2MIC, MIC and MIC/2, all three strains): more than 24 h; Zone of Inhibition ([5]; 20 μg per disk): 35± 0.97 mm; Zone of Inhibition ([5]; 40 μg per disk): 39± 1.12 mm; zone of inhibition at 10 µg/disc ([5]; Candida albicans, ATCC90028, 10 μg per disk): 28 ± 0.72 mm; Zone of Inhibition ([6]; 40 μg per disk): 26± 0.92 mm; zone of inhibition at 20 µg/disc ([6]; Candida albicans): 19 ± 0.95 mm; zone of inhibition at 10 µg/disc ([6]; Candida albicans, 10 μg per disk): 14 ± 0.7 mm; Zone of Inhibition ([7]; 20 μg per disk): 26± 073 mm; Zone of Inhibition ([7]; 40 μg per disk): 32± 1.28 mm; zone of inhibition at 10 µg/disc ([7]; Candida albicans): 20 ± 0.21 mm |
